According to paper PMC7972841, “In Vivo Molecular Imaging of the Efficacy of Aminopeptidase N (APN/CD13) Receptor Inhibitor Treatment on Experimental Tumors Using ^68Ga-NODAGA-c(NGR) Peptide” (BioMed Research International, 2021):
Like-named read-outs stand apart in the source and are kept apart here.

Experiments:
[1] = tested on: B16-F10 tumors (APN/CD13); conditions: for T/M ratio of treated tumor: 90 min after iv tracer; for ^68Ga-NODAGA-c(NGR) SUVmean of treated tumor: PET 90 min after iv tracer, mean ± SD
Description: (§1) For experimental tumor induction, mice were anaesthetized with a dedicated small animal anaesthesia device (Tec3 Isoflurane Vaporizer, Eickemeyer Veterinary Equipment, UK) using 3% isoflurane (Forane, AbbVie), 0.4 L/min O2, and 1.4 L/min N2O. After depilation of the left shoulder area of the animals, CB17 SCID mice (n = 30) were injected subcutaneously with 1.5 × 10^6 HT1080 (human fibrosarcoma) cells in 150 μL (1/3 part of Matrigel and 2/3 part of saline), and C57BL/6 mice (n = 30) were injected subcutaneously with 3 × 10^6 B16-F10 cells in 150 μL of sterile saline. […] The tumor size was calculated using the following formula: (largest diameter × smallest diameter^2)/2.
(§2) For the actinonin-treated groups, 5 mg/kg actinonin (dissolved in 10 μL abs. EtOH and diluted with 140 μL HumAqua (aqua destillata, TEVA, Debrecen, Hungary)) was administrated daily by intraperitoneal injection for 7 days. The control-untreated group was injected intraperitoneally with 150 μL saline for 7 days.
(§3) Five and ten days after tumor cell implantation, control-untreated tumor-bearing and treated tumor-bearing animals were anaesthetized with 3% isoflurane and were injected with 5.5 ± 0.2 MBq APN/CD13-specific ^68Ga-NODAGA-c(NGR) in 150 μL saline via the lateral tail vein. After 90 min incubation time, 20 min static PET scans were performed from the tumorous area using the preclinical miniPET device (University of Debrecen, Faculty of Medicine, Department of Medical Imaging, Division of Nuclear Medicine and Translational Imaging). After 3D OSEM-LOR image reconstruction, volumes of interest (VOIs) were manually drawn around the examined regions using the BrainCAD image analysis software and quantitative standardized uptake values (SUVs) were calculated as follows: SUV = [VOI activity (Bq/mL)]/[injected activity (Bq)/animal weight (g)], assuming a density of 1 g/mL. Tumor-to-muscle (T/M) ratios were calculated from the activity of the tumor and background (muscle).

HT1080 tumor = assay: Ex vivo biodistribution, HT1080 tumor-bearing mice; conditions: HT1080 tumor-bearing mice treated ip daily (bestatin 15 mg/kg or actinonin 5 mg/kg), mean±SD, n=10
Description: as §2
(§4) After in vivo PET imaging, control-untreated tumor-bearing and treated tumor-bearing animals were euthanized with 5% Forane and dissected, and blood, urine, and samples were taken from the liver, spleen, kidney, small intestine, large intestine, stomach, heart, lungs, tumors, muscles, and fat. The weight and radioactivity of the selected organs and tissues were measured with a calibrated gamma counter (Hewlett Packard Cobra II Autogama Gamma Counter). The uptake of the APN/CD13-specific ^68Ga-NODAGA-c(NGR) radiotracer was expressed as %ID/g tissue.

HT1080 tumors (APN/CD13) = conditions: for T/M SUVmean ratio of treated tumor: 90 min after iv tracer; for ^68Ga-NODAGA-c(NGR) SUVmean of treated tumor: PET 90 min after iv tracer, mean ± SD
Description: as §1, §2, §3

APN/CD13 [2] = assay: Western blot analysis of APN/CD13 in HT1080 tumors; assay type: in vivo, human; conditions: HT1080 tumors after treatment, densitometry
Description: For western blot analysis, frozen tissue samples were pulverized under liquid nitrogen, and tissue homogenization was performed with TissueLyser II (QIAGEN). Tumors were lysed in a RIPA buffer. After protein isolation, protein samples (10-40 μg) were separated on 10% SDS polyacrylamide gels and electrotransferred onto nitrocellulose membranes. After blocking, the membranes were incubated with primary anti-human and anti-mouse CD13 (from Santa-Cruz Biotechnology, Inc., USA) antibody at the dilution of 1 : 1000 overnight at 4°C. After washing, the membranes were probed with IgG HRP conjugated secondary antibody (Cell Signaling Technology, Inc., Beverly, MA, 1 : 2000). Beta-actin was used as a loading control. Bands were visualized by enhanced chemiluminescence reaction. Densitometry was performed using the ImageJ software. For the detailed protocol, please see Supplementary Material western blot analysis.
For western blot analysis frozen tissue samples were pulverized under liquid nitrogen and tissue homogenization was performed with TissueLyser II (QIAGEN). […] Upon densitometry, negative control samples (mouse large intestine) were considered to be 1 and values are expressed as fold change relative to controls to reduce unwanted variations. […]

B16-F10 tumors = assay: Tumor volume, B16-F10 tumors; assay type: in vivo, C57BL/6 mice; conditions: caliper, n = 10/group
Description: (§5) For experimental tumor induction, mice were anaesthetized with a dedicated small animal anaesthesia device (Tec3 Isoflurane Vaporizer, Eickemeyer Veterinary Equipment, UK) using 3% isoflurane (Forane, AbbVie), 0.4 L/min O2, and 1.4 L/min N2O. After depilation of the left shoulder area of the animals, CB17 SCID mice (n = 30) were injected subcutaneously with 1.5 × 10^6 HT1080 (human fibrosarcoma) cells in 150 μL (1/3 part of Matrigel and 2/3 part of saline), and C57BL/6 mice (n = 30) were injected subcutaneously with 3 × 10^6 B16-F10 cells in 150 μL of sterile saline. Tumor growth was assessed by caliper measurements by the same experienced researcher. The tumor size was calculated using the following formula: (largest diameter × smallest diameter^2)/2.
as §2

B16-F10 tumor = assay: Ex vivo biodistribution, B16-F10 tumor-bearing mice; conditions: B16-F10 tumor-bearing mice treated ip daily (bestatin 15 mg/kg or actinonin 5 mg/kg), mean±SD, n=10
Description: as §2, §4

APN/CD13 [3] = assay: Western blot analysis of APN/CD13 in B16-F10 tumors; assay type: in vivo, mouse; conditions: B16-F10 melanoma after treatment, densitometry
Description: For western blot analysis frozen tissue samples were pulverized under liquid nitrogen and tissue homogenization was performed with TissueLyser II (QIAGEN). Cells were lysed in RIPA buffer (50 mM Tris, 150 mM NaCl, 0.1 % SDS, 1 % TritonX 100, 0.5 % sodium deoxycolate, 1 mM EDTA, 1 mM Na3VO4, 1 mM NaF, 1 mM PMSF, protease inhibitor cocktail). […] Upon densitometry, negative control samples (mouse large intestine) were considered to be 1 and values are expressed as fold change relative to controls to reduce unwanted variations. […]

HT1080 tumors = assay: Tumor volume, HT1080 tumors; assay type: in vivo, CB17 SCID mice; conditions: caliper, n = 10/group
Description: as §5, §2

[4] = B16-F10, day 5, bestatin 15 mg/kg or actinonin 5 mg/kg ip daily
[5] = B16-F10, day 10, bestatin 15 mg/kg or actinonin 5 mg/kg ip daily 7 days
[6] = HT1080, day 5, bestatin 15 mg/kg or actinonin 5 mg/kg ip daily
[7] = HT1080, day 10, bestatin 15 mg/kg or actinonin 5 mg/kg ip daily 7 days

Which results are given for CC(C)C[C@H](NC(=O)[C@@H](O)[C@H](N)Cc1ccccc1)C(=O)O [bestatin]?
T/M ratio of treated tumor [1, 4]: 1.11 ± 0.01; ^68Ga-NODAGA-c(NGR) SUVmean of treated tumor ([1]; B16-F10, day 5, ip daily from day 3 (bestatin 15 mg/kg, actinonin 5 mg/kg)): 0.03 ± 0.01; T/M ratio of treated tumor [1, 5]: 1.63 ± 0.09; ^68Ga-NODAGA-c(NGR) SUVmean of treated tumor ([1]; B16-F10, day 10, ip daily 7 days (bestatin 15 mg/kg, actinonin 5 mg/kg)): 0.04 ± 0.001; T/M ID%/g, treated animals (HT1080 tumor): 1.45±0.15; T/M SUVmean ratio of treated tumor (HT1080 tumors (APN/CD13); [6]): 0.57 ± 0.2; ^68Ga-NODAGA-c(NGR) SUVmean of treated tumor (HT1080 tumors (APN/CD13); HT1080, day 5, ip daily from day 3 (bestatin 15 mg/kg, actinonin 5 mg/kg)): 0.02 ± 0.01; T/M SUVmean ratio of treated tumor (HT1080 tumors (APN/CD13); [7]): 0.61 ± 0.20; ^68Ga-NODAGA-c(NGR) SUVmean of treated tumor (HT1080 tumors (APN/CD13); HT1080, day 10, ip daily 7 days (bestatin 15 mg/kg, actinonin 5 mg/kg)): 0.01 ± 0.01; amount of APN/CD13 protein in tumor vs control-untreated (APN/CD13 [2]): did not significantly reduce; tumor volume (B16-F10 tumors; B16-F10, day 3 (start of treatment)): 52.1 ± 2.6 mm^3; tumor volume (B16-F10 tumors; [4]): 65.0 ± 5.2 mm^3; tumor volume (B16-F10 tumors; [5]): 62.0 ± 2.8 mm^3; T/M ID%/g, treated animals (B16-F10 tumor): 2.40±0.92; expression of APN/CD13 in tumor vs untreated (APN/CD13 [3]): significantly lower; tumor volume (HT1080 tumors; HT1080, day 3 (start of treatment)): 52.3 ± 2.8 mm^3; tumor volume (HT1080 tumors; [6]): 17 ± 1.2 mm^3; tumor volume (HT1080 tumors; [7]): 7.0 ± 2.0 mm^3
